Patent US11452699B2, “Method of treating or preventing tumors of the central nervous system” (Berg LLC, priority 2011, dated 2022)

Legend:
Type in all cases: in vivo
[1] = tested on: chloroleukemic cells; assay: First-line lipopolysaccharide treatment of chloroleukemia in Fischer 344 rats injected as newborns (model creation)
Description: (§1) A model of CNS chloroleukemia was created using Fischer 344 rats, in which chloroleukemic cells were injected into the rats as newborns and lipopolysaccharide (LPS) was given as a first-line of treatment. The cure rate with this regimen was approximately 50%, and approximately 10% of survivors developed CNS leukemia as judged by their motor skills and the presence of quadriplegia and paraplegia.
(§2) For this study, 2400 Fischer 344 neonates were injected with the chloroleukemic cell line MIAC51 and treated with LPS. All animals with overt signs of leukemia, i.e., systemic disease, were sacrificed by day 26. […] Of that cohort, 150 animals were selected with hind leg paraplegia on day 40, see FIGS. 1A and 1B. These animals were then re-randomized into 5 groups: group 1 received no treatment, group 2 received excipient control IV, group 3 received 5 mg/kg CoQ10 IV (i.e., 15 mg/kg/day), group 4 received 10 mg/kg IV (i.e., 30 mg/kg/day), and group 5 received 25 mg/kg IV (i.e., 75 mg/kg/day) for 4 weeks, 3 times daily.

[2] = tested on: CNS chloroleukemia (metastatic, leukemic CNS tumors); assay: Long term effect of CoQ10 on CNS chloroleukemia in paraplegic Fischer 344 rats (Example 2)
Description: FIG. 4: Long-term Effect of CoQ10 on CNS Leukemia. 300 paraplegic animals with overt CNS leukemia were randomized into two groups of 150 animals each: one received phosphate buffered saline (PBS) and the other group received 100 mg/kg CoQ10 once daily starting on day 1 through day 28 (first cycle). A second cycle of 100 mg/kg CoQ10 once daily started on day 35 and continued through day 62. Animals received two cycles of 28 days each of CoQ10. On days 173 and 195 as indicated by *, 5 animals were sacrificed for necropsy and pathology analysis.
as §1, with “The” for “A”, “in” for “was created using”, “rats provided” for “rats,”, “Example 1 was used for long term studies of the treatment of metastatic, leukemic CNS tumors. As in Example 1” for “which”
For this study of long term effect of CoQ10 on CNS leukemia, 300 paraplegic animals with overt CNS leukemia were randomized into two groups of 150 animals each. Group one received a saline control. Group two received 100 mg/kg CoQ10 once daily starting on day 1 through day 28 (first cycle). The second cycle started on day 35 and continued through day 62. […]

[3] = tested on: CNS chloroleukemia (chloroleukemic cell line MIAC51); assay: Treatment of CNS chloroleukemia in paraplegic Fischer 344 rats with CoQ10 IV (Example 1)
Description: as §1, §2

Compound	cure rate ([1]; LPS as first-line treatment after injection of chloroleukemic cells into newborn rats)	survivors that developed CNS leukemia (motor skills, quadriplegia and paraplegia) ([1]; survivors of LPS first-line regimen)	necropsy and pathological analysis for chloroleukemia or CNS tumors ([2]; 100 mg/kg CoQ10, five animals sacrificed on days 173 and 195)	recovery of motor skills / ability to walk ([2]; 100 mg/kg IV once daily, two cycles of 28 days (days 1-28 and 35-62))	signs of improvement (CNS abnormalities, motor skills) ([3]; 5 mg/kg IV 3 times daily (15 mg/kg/day) for 4 weeks, group 3)	MRI for tumor cells ([3]; 5 mg/kg IV 3 times daily (15 mg/kg/day), group 3)	signs of improvement (CNS abnormalities, motor skills) ([3]; 10 mg/kg IV 3 times daily (30 mg/kg/day) for 4 weeks, group 4)	MRI for tumor cells ([3]; 10 mg/kg IV 3 times daily (30 mg/kg/day), group 4)	recovery of motor skills / ability to walk ([3]; 25 mg/kg IV three times per day (75 mg/kg/day) for 4 weeks, group 5)	MRI for tumor cells ([3]; 25 mg/kg IV three times per day (75 mg/kg/day), group 5, FIGS. 3A and B)	mortality due to CNS tumors (mortality curves) ([3]; FIG. 2, animals treated with or without CoQ10, 5, 10, 25 mg/kg IV 3 times daily)
lipopolysaccharide [lipopolysaccharide (LPS)]	approximately 50%	approximately 10%									
COC1=C(OC)C(=O)C(C/C=C(\C)CC/C=C(\C)CC/C=C(\C)CC/C=C(\C)CC/C=C(\C)CC/C=C(\C)CC/C=C(\C)CC/C=C(\C)CC/C=C(\C)CCC=C(C)C)=C(C)C1=O [CoQ10, Coenzyme Q10]			No evidence of chloroleukemia or CNS tumors were found	significant recovery of their motor skills and regained their ability to walk	did not exhibit any signs of improvement	positive for tumor cells	did not exhibit any signs of improvement	positive for tumor cells	significant recovery of their motor skills and regained their ability to walk	lack of tumor cells	decrease in mortality due to CNS tumors is observed in a dose-dependent manner
